Biological target: T1, human insulin (HI) (Homo sapiens, UniProt P01308)
T1 construct: gene INS; HI (Actrapid)
Assay: Thioflavin-T fibrillation assay with insulin ([…] HCl, pH […] °C, […] h)
Type: biochemical

T1 sequence (P01308 25-54): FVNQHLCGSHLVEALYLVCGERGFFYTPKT
T1 sequence (P01308 90-110): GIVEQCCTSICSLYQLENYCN

Q: Which EC50 does the source give for `COc1cc(/C=C/C(=O)CC(=O)/C=C/c2ccc(O)c(OC)c2)ccc1O` [Curcumin] here?
A: 44.1 µM

Source: publication PMC11720140, “Evaluation of the Anti-Amyloid and Anti-Inflammatory Properties of a Novel Vanadium(IV)–Curcumin Complex in Lipopolysaccharides-Stimulated Primary Rat Neuron-Microglia Mixed Cultures” (International Journal of Molecular Sciences, 2024)
